# Experimental data taken from ChEMBL document CHEMBL1138765, “Design, synthesis, and biological evaluation of biotin conjugates of 2-cyano-3,12-dioxooleana-1,9(11)-dien-28-oic acid for the isolation of the protein targets” (J Med Chem, 2004).
# pIC50: −log10 of the molar value.
# Tested on: MCF7
# Experiment: Inhibitory concentration against proliferation of MCF-7 (ER Positive) breast cancer cells
# Format: functional, cell-based
# Conditions: Homo sapiens
row,Structure (SMILES),pIC50
1,COC(=O)[C@]12CCC(C)(C)C[C@H]1[C@H]1C(=O)C=C3[C@@]4(C)C=C(C#N)C(=O)C(C)(C)[C@@H]4CC[C@@]3(C)[C@]1(C)CC2 [BARDOXOLONE METHYL],7.30
2,CC1(C)CC[C@]2(C(=O)NCCCCCCNC(=O)CCCCC3SC[C@@H]4NC(=O)N[C@H]34)CC[C@]3(C)C(C(=O)C=C4[C@@]5(C)C=C(C#N)C(=O)C(C)(C)[C@@H]5CC[C@]43C)C2C1 (stereo partly specified),5.48
3,CC1(C)CC[C@]2(C(=O)O)CC[C@]3(C)[C@H](C(=O)C=C4[C@@]5(C)C=C(C#N)C(=O)C(C)(C)[C@@H]5CC[C@]43C)[C@@H]2C1 [BARDOXOLONE],6.80
4,COC(=O)[C@]12CCC(C)(C)CC1C1C(=O)C=C3[C@@]4(C)C=C(C#N)C(=O)[C@@](C)(COC(=O)CCCCCNC(=O)CCCC[C@@H]5SC[C@@H]6NC(=O)N[C@@H]65)[C@@H]4CC[C@@]3(C)[C@]1(C)CC2 (stereo partly specified),6.26
5,COC(=O)[C@]12CCC(C)(C)CC1C1C(=O)C=C3[C@@]4(C)C=C(C#N)C(=O)[C@@](C)(CO)[C@@H]4CC[C@@]3(C)[C@]1(C)CC2 (stereo partly specified),7.10
6,CC1(C)CC[C@]2(C(=O)NCCCC(=O)NCCCCCCNC(=O)CCCCC3SC[C@@H]4NC(=O)N[C@H]34)CC[C@]3(C)C(C(=O)C=C4[C@@]5(C)C=C(C#N)C(=O)C(C)(C)[C@@H]5CC[C@]43C)C2C1 (stereo partly specified),5.28
